# Results: US20260174734A1, “PHARMACEUTICAL COMPOSITION” (MEXICHEM FLUOR S.A. DE C.V., priority 2016, published 2026)
# Tests used:
# [1] = In vitro aerosolization performance from MDI (Next Generation Impactor); type: physicochemical
# Experimental: The drugs were weighed directly into standard uncoated 14 ml aluminium canisters (C128, Presspart, Blackburn, UK). The canisters were then crimped with a 50 μL valve (Bespak, Kings Lynn, UK) following which the propellant was filled into the canisters through the valve using a manual Pamasol crimper/filler (Pamasol, Switzerland).
# Finally, the canisters were sonicated for 20 minutes to aid dispersion of the drug in the suspension.
# The in vitro aerosolization performance of the formulations was tested immediately after preparation (time t=zero) with a Next Generation Impactor using the method described below. The formulations were then stored under stress storage conditions (valve down) at 40° C. and 75% relative humidity for 1 month. After storing for 1 month under the stress storage conditions, the in vitro aerosolization performance of the pharmaceutical formulations was tested again as before with a Next Generation Impactor using the method described below.
# The Next Generation Impactor (NGI, Copley Scientific, Nottingham UK) was connected to a vacuum pump (GE Motors, NJ, USA). Prior to testing, the cups of the NGI system were coated with 1% v/v silicone oil in hexane to eliminate particle bounce. For each experiment, three actuations of the valve were discharged into the NGI at 30 L.min-1 as per pharmacopeia guidelines. Following aerosolization, the NGI apparatus was dismantled and the actuator and each part of the NGI was washed down into known volumes of the HPLC mobile phase. The mass of drug deposited on each part of the NGI was determined by HPLC. This protocol was repeated three times for each canister, following which, the fine particle dose (FPD) and fine particle fraction of the emitted dose (FPFED) were determined.
# High performance liquid chromatography (HPLC) was used to determine drug content following aerosolization studies (see below).
# (§1) The columns were coupled to a UV detector operating at a wavelength of either 220 nm or 235 nm depending on which drug was being analysed. The autosampler was operated at ambient temperature and 100 μl samples were injected into the column for the analyses.
# [2] = Chemical stability in propellant in uncoated aluminium cans (HPLC assay and total impurities); conditions: for % Assay (LC) / % total impurities: uncoated aluminium cans
# Experimental: as §1
# [3] = HFA-134a propellant, T = 0, combination formulation, MDI
# [4] = HFA-134a propellant, T = 1 month @ 40° C./75% RH, valve down
# [5] = HFA-152a propellant, T = 0, combination formulation, MDI
# [6] = HFA-152a propellant, T = 1 month @ 40° C./75% RH, valve down
# [7] = HFA-134a, T = 1M @ 25° C./60% RH
# [8] = HFA-134a, T = 1M @ 40° C./75% RH
# [9] = HFA-134a, T = 3M @ 25° C./60% RH
# [10] = HFA-134a, T = 3M @ 40° C./75% RH
# [11] = HFA-152a, T = 1M @ 25° C./60% RH
# [12] = HFA-152a, T = 1M @ 40° C./75% RH
# [13] = HFA-152a, T = 3M @ 25° C./60% RH
# [14] = HFA-152a, T = 3M @ 40° C./75% RH
SMILES,"Emitted Dose (μg ± S.D.) [1, 3] [µg]","Fine Particle Dose (μg ± S.D.) [1, 3] [µg]","MMAD ± GSD (μm) [1, 3] [μm]","Emitted Dose (μg ± S.D.) [1, 4] [µg]","Fine Particle Dose (μg ± S.D.) [1, 4] [µg]","MMAD ± GSD (μm) [1, 4] [μm]","Emitted Dose (μg ± S.D.) [1, 5] [µg]","Fine Particle Dose (μg ± S.D.) [1, 5] [µg]","MMAD ± GSD (μm) [1, 5] [μm]","Emitted Dose (μg ± S.D.) [1, 6] [µg]","Fine Particle Dose (μg ± S.D.) [1, 6] [µg]","MMAD ± GSD (μm) [1, 6] [μm]","% Assay (LC) ([2]; HFA-134a, Initial time T = 0) [%]","% total impurities ([2]; HFA-134a, Initial time T = 0)","% Assay (LC) [2, 7] [%]","% total impurities [2, 7] [%]","% Assay (LC) [2, 8] [%]","% total impurities [2, 8] [%]","% Assay (LC) [2, 9] [%]","% total impurities [2, 9] [%]",further results
"C[N+]1(C)CCC(OC(=O)C(O)(c2ccccc2)C2CCCC2)C1 (stereo not shown) [Glycopyrronium Bromide, glycopyrronium bromide]",43.7 ± 0.2,12.6 ± 0.1,2.6 ± 2.4,38.7 ± 0.6,11.4 ± 0.4,2.8 ± 2.3,45.2 ± 0.7,21.0 ± 1.0,3.1 ± 2.2,44.2 ± 0.6,20.7 ± 0.8,3.0 ± 2.2,98.5,0.19%,98.2,0.28,97.8,0.39,94.8,1.15,"MMAD ([1]; HFA-134a based formulations): around 2.6 μm; % Assay (LC) [2, 10]: 93.8%; % total impurities [2, 10]: 1.38%; % Assay (LC) ([2]; HFA-152a, Initial time T = 0): 98.5%; % total impurities ([2]; HFA-152a, Initial time T = 0): 0.19%; % Assay (LC) [2, 11]: 98.6%; % total impurities [2, 11]: 0.25%; % Assay (LC) [2, 12]: 98.4%; % total impurities [2, 12]: 0.35%; % Assay (LC) [2, 13]: 97.6%; % total impurities [2, 13]: 0.55%; % Assay (LC) [2, 14]: 97.2%; % total impurities [2, 14]: 0.82%"
"CCc1cc2c(cc1CC)CC(NC[C@H](O)c1ccc(O)c3[nH]c(=O)ccc13)C2 [Indacaterol, indacaterol]",–,–,–,–,–,–,–,–,–,–,–,–,–,–,–,–,–,–,–,–,"chemical stability under accelerated test conditions, HFA-152a rather than HFA-134a ([2]; HFA-152a as aerosolization propellant versus HFA-134a): superior chemical stability"
"CCC(=O)O[C@]1(C(=O)SCF)[C@H](C)C[C@H]2[C@@H]3C[C@H](F)C4=CC(=O)C=C[C@]4(C)[C@@]3(F)[C@@H](O)C[C@@]21C [Fluticasone Propionate, fluticasone propionate]",119.0 ± 2.0,38.8 ± 1.7,3.0 ± 1.8,112.8 ± 2.3,32.8 ± 1.9,3.1 ± 1.9,111.8 ± 0.7,51.5 ± 1.9,3.0 ± 1.9,105.6 ± 0.8,48.5 ± 1.5,2.9 ± 1.9,98.5,<LoQ,98.2,0.19,97.8,0.38,94.8,0.58,"FPFED (%) fine particle fraction of the emitted dose [1, 3]: 32.6 ± 0.9%; FPFED (%) fine particle fraction of the emitted dose [1, 4]: 29.0 ± 1.9%; FPFED (%) fine particle fraction of the emitted dose [1, 5]: 46.1 ± 1.5%; FPFED (%) fine particle fraction of the emitted dose [1, 6]: 45.2 ± 1.2%; % Assay (LC) [2, 10]: 93.8%; % total impurities [2, 10]: 0.69%; % Assay (LC) ([2]; HFA-152a, Initial time T = 0): 98.5%; % total impurities ([2]; HFA-152a, Initial time T = 0): <LoQ; % Assay (LC) [2, 11]: 98.6%; % total impurities [2, 11]: <LoQ; % Assay (LC) [2, 12]: 98.4%; % total impurities [2, 12]: 0.18%; % Assay (LC) [2, 13]: 97.6%; % total impurities [2, 13]: <LoQ; % Assay (LC) [2, 14]: 97.2%; % total impurities [2, 14]: 0.58%"
